According to ChEMBL document CHEMBL3272212, “Synthesis and antimineralocorticoid activities of some 6-substituted 7 alpha-carboalkoxy steroidal spirolactones” (1977):

What was measured:
Type in all cases: functional, Urine
Rattus norvegicus [1] = test: Inhibition of deoxycorticosterone acetate-induced urinary electrolyte effects in intragastrically dosed adrenalectomized rat assessed as increase in Na:K ratio
Rattus norvegicus [2] = test: Inhibition of deoxycorticosterone acetate-induced urinary electrolyte effects in sc dosed adrenalectomized rat assessed as increase in Na:K ratio
Rattus norvegicus [3] = test: Ratio of MED for Inhibition of deoxycorticosterone acetate-induced urinary electrolyte effects in intragastrically dosed adrenalectomized rat to MED for deoxycorticosterone acetate-induced urinary electrolyte effects in sc dosed adrenalectomized rat

| SMILES | MED (Rattus norvegicus [1]) [mg] | MED (Rattus norvegicus [2]) [mg] | Ratio (Rattus norvegicus [3]) |
| --- | --- | --- | --- |
| C=C1C2=CC(=O)CC[C@]2(C)[C@H]2CC[C@@]3(C)[C@@H](CC[C@@]34CCC(=O)O4)[C@@H]2[C@@H]1C(=O)OC | >2.4 | >2.4 |  |
| COC(=O)[C@H]1[C@@H]2[C@H](CC[C@@]3(C)[C@H]2CC[C@@]32CCC(=O)O2)[C@@]2(C)CCC(=O)C=C2[C@@H]1O | 2.12 | 0.42 |  |
| CC(=O)S[C@@H]1CC2=CC(=O)CC[C@]2(C)[C@H]2CC[C@@]3(C)[C@@H](CC[C@@]34CCC(=O)O4)[C@H]12 [SPIRONOLACTONE] | 0.48 | 0.33 |  |
| COC(=O)[C@H]1[C@@H]2[C@H](CC[C@@]3(C)[C@H]2CC[C@@]32CCC(=O)O2)[C@@]2(C)CCC(=O)C=C2[C@H]1C | >2.4 | 0.47 |  |
| COC(=O)[C@H]1[C@@H]2[C@H](CC[C@@]3(C)[C@H]2CC[C@@]32CCC(=O)O2)[C@@]2(C)CCC(=O)C=C2[C@@H]1C | 0.58 | 0.2 |  |
| CC(C)OC(=O)[C@H]1[C@@H]2[C@H](CC[C@@]3(C)[C@H]2CC[C@@]32CCC(=O)O2)[C@@]2(C)CCC(=O)C=C2[C@@H]1O | 1.81 | 0.28 | 6 |
| [2H][C@H]1C2=CC(=O)CC[C@]2(C)[C@H]2CC[C@@]3(C)[C@@H](CC[C@@]34CCC(=O)O4)[C@@H]2[C@@H]1C(=O)OC | 1 | 0.3 |  |
| COC(=O)[C@H]1[C@@H]2[C@H](CC[C@@]3(C)[C@H]2CC[C@@]32CCC(=O)O2)[C@@]2(C)CCC(=O)C=C2[C@@H]1Br | 1.05 | 0.58 |  |
